{"source": "patent US20230149326A1", "about": "“PHARMACEUTICAL COMPOSITION FOR PREVENTING OR TREATING MUSCULAR WEAKNESS-RELATED DISEASES COMPRISING ALVERINE, 4-HYDROXY ALVERINE, DERIVATIVE THEREOF, OR PHARMACEUTICALLY ACCEPTABLE SALT THEREOF” (AVENTI INC., priority 2020, published 2023)", "key": {"[1]": {"test_system": "C57BL/6 male mice", "experiment": "Grip strength measurement, normal mouse", "assay_type": "in vivo", "details": "oral, 4 weeks, 17, 50 or 150 mg/kg/day; compared with normal group", "protocol": "In order to confirm the muscle strength enhancement effect of alverine citrate, after administering alverine citrate to a mouse, the mouse was tested for motor functions such as grip strength, running, balance coordination, and the like. After motor function tests, muscle weight was measured. In particular, each of 10 week-old C57BL/6 male mice was dosed orally with 200 μL of alverine citrate for 4 weeks, at a daily dose of 17 mg/kg/day (AC-L), 50 mg/kg/day (AC-M) or 150 mg/kg/day (AC-H). This group of mice was set as the experimental group (FIG. 3). The 10 week-old C57BL/6 male mice were purchased from Daehan BioLink. Grip strength was measured using a grip strength meter for mice (Bioseb, USA). In particular, the mice were placed on a metal grid connected to an instrument panel through which grip strength can be monitored, and while pulling the mice back by tail, the grip strength by which the mice grabbed the metal grid was measured. Here, 5 consecutive, repeated measurements were recorded and an average value of the 5 measurements was calculated."}, "[2]": {"test_system": "C2C12 cells", "experiment": "Myotube atrophy induced by C26 cancer cell conditioned medium (cachexia model)", "assay_type": "cell-based, mouse", "details": "1 μM; differentiation media with 33% CM, 3 days", "protocol": "In order to confirm a cachexia treatment effect of alverine citrate and 4-hydroxy alverine, an experiment mimicking a tumor-growth environment by treatment of a cancer cell conditioned medium (CM) was conducted as an ex vivo approach. First, cancer cell CM was prepared using a C26 cancer cell line. Here, as cancel cell growth media (GM), RPMI1640 media supplemented with 10% fetal bovine serum was used. The C26 cancer cell line was cultured using a 100 mm cell culture plate and the cancer cell GM. Here, the media were removed when cell confluency reached 90%. Then, after washing with phosphate buffer (1× buffer), the prepared differentiation media were treated following the same process as in Example 1. After 24 hours, a C26 cancer cell line CM was obtained and filtered using bottle top filters (Thermo, PES, 1 L) before use.\nC2C12 cells were dispensed in a 6-well plate treated with the GM of Example 1.1 at a concentration of 5×10^5 cells per plate and after 24 hours, were replaced with DMEM media supplemented with 5% HS and induced for differentiation. […] Here, by treating the experimental groups with 1 μM alverine citrate (AC) and 4-hydroxy alverine (4HA), the effect of suppressing myotube atrophy was evaluated. […] Following the same method as in Example 1.2, by florescent staining using antibodies against MyHC, the expression amount of MyHC was measured."}, "[3]": {"test_system": "C57BL/6 male mice", "experiment": "Muscle weight measurement, normal mouse", "assay_type": "in vivo", "protocol": "In order to confirm the muscle strength enhancement effect of alverine citrate, after administering alverine citrate to a mouse, the mouse was tested for motor functions such as grip strength, running, balance coordination, and the like. After motor function tests, muscle weight was measured. In particular, each of 10 week-old C57BL/6 male mice was dosed orally with 200 μL of alverine citrate for 4 weeks, at a daily dose of 17 mg/kg/day (AC-L), 50 mg/kg/day (AC-M) or 150 mg/kg/day (AC-H). This group of mice was set as the experimental group (FIG. 3). The 10 week-old C57BL/6 male mice were purchased from Daehan BioLink. For muscle weight measurement, gastrocnemius (GA) tibialis anterior (TA) muscles in the hindlimb of the mice in each group were removed and weighed."}, "[4]": {"test_system": "C57BL/6 male mice", "experiment": "Running ability test (treadmill), normal mouse", "assay_type": "in vivo", "details": "oral", "protocol": "In order to confirm the muscle strength enhancement effect of alverine citrate, after administering alverine citrate to a mouse, the mouse was tested for motor functions such as grip strength, running, balance coordination, and the like. After motor function tests, muscle weight was measured. In particular, each of 10 week-old C57BL/6 male mice was dosed orally with 200 μL of alverine citrate for 4 weeks, at a daily dose of 17 mg/kg/day (AC-L), 50 mg/kg/day (AC-M) or 150 mg/kg/day (AC-H). This group of mice was set as the experimental group (FIG. 3). The 10 week-old C57BL/6 male mice were purchased from Daehan BioLink. Running ability was measured using a treadmill designed specific for this experiment. First, aversive stimuli were provided by letting electric stimuli flow at the starting point. Before the measurement, the mice were acclimatized at 8 m/min for 10 minutes. The running time was recorded by allowing mice in each group to run in separate lanes until exhaustion. Exhaustion was defined such that when the mouse stays outside the lanes for 10 seconds or more without running, the mouse was determined to be exhausted and the time was recorded. It was not possible to repeat this experiment on the same mouse. The mouse was placed on the treadmill and the test was started at 8 rpm, and the speed was accelerated by 2 rpm every 10 minutes to a maximum speed of 20 rpm. […]"}}, "note": "Where a name gives a salt, the structure may show the parent alone."}
{"smiles": "CCN(CCCc1ccccc1)CCCc1ccccc1", "note": "[alverine citrate]", "values": [{"measurement": "grip strength", "setting": "[1]", "result": "higher than that of the mouse in the normal group"}, {"measurement": "myotube atrophy", "setting": "[2]", "result": "myotube atrophy was suppressed"}, {"measurement": "muscle weight of GA and TA, dependence on dose", "setting": "[3]; as the administration dose increases (17, 50, 150 mg/kg/day)", "result": "also increased"}, {"measurement": "muscle weight of GA and TA", "setting": "[3]; oral, 4 weeks, 17, 50 or 150 mg/kg/day, compared with normal group", "result": "increased compared to the normal group mouse"}, {"measurement": "running time", "setting": "[4]; 4 weeks, 150 mg/kg/day", "result": "significant increase in the running time"}, {"measurement": "running time", "setting": "[4]; 4 weeks, 17, 50 or 150 mg/kg/day, compared with normal group", "result": "increased compared to the normal group mouse"}]}
